Test results: PubChem BioAssay (NCI)
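Following 48 hours of exposure in 96-well plates, responses at five concentrations were used to interpolate endpoints linearly. At the GI50, growth is halved. TGI marks complete inhibition of growth.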

Experiments:
Assay in all cases: growth of human tumour cells (NCI), 48 h
786-0 renal = test system: 786-0 renal
A498 renal = test system: A498 renal
A549 NSCLC = test system: A549 NSCLC
ACHN renal = test system: ACHN renal
BT-549 breast = test system: BT-549 breast
COLO 205 colon = test system: COLO 205 colon
DU-145 prostate = test system: DU-145 prostate
EKVX NSCLC = test system: EKVX NSCLC
HCC-2998 colon = test system: HCC-2998 colon
HCT-116 colon = test system: HCT-116 colon
HCT-15 colon = test system: HCT-15 colon
HL-60(TB) leukemia = test system: HL-60(TB) leukemia
HOP-62 NSCLC = test system: HOP-62 NSCLC
HOP-92 NSCLC = test system: HOP-92 NSCLC
HS 578T breast = test system: HS 578T breast
HT29 colon = test system: HT29 colon
K-562 leukemia = test system: K-562 leukemia
LOX IMVI melanoma = test system: LOX IMVI melanoma
M14 melanoma = test system: M14 melanoma
MALME-3M melanoma = test system: MALME-3M melanoma
MCF7 breast = test system: MCF7 breast
MDA-MB-231 breast = test system: MDA-MB-231 breast
MDA-MB-435 = test system: MDA-MB-435
MOLT-4 leukemia = test system: MOLT-4 leukemia
NCI-H226 lung = test system: NCI-H226 lung
NCI-H23 lung = test system: NCI-H23 lung
NCI-H460 lung = test system: NCI-H460 lung
NCI-H522 lung = test system: NCI-H522 lung
NCI/ADR-RES ovarian = test system: NCI/ADR-RES ovarian
OVCAR-4 ovarian = test system: OVCAR-4 ovarian
OVCAR-5 ovarian = test system: OVCAR-5 ovarian
OVCAR-8 ovarian = test system: OVCAR-8 ovarian
PC-3 prostate = test system: PC-3 prostate
RPMI-8226 leukemia = test system: RPMI-8226 leukemia
RXF 393 renal = test system: RXF 393 renal
SF-268 CNS = test system: SF-268 CNS
SF-539 CNS = test system: SF-539 CNS
SK-MEL-2 melanoma = test system: SK-MEL-2 melanoma
SK-MEL-28 melanoma = test system: SK-MEL-28 melanoma
SK-MEL-5 melanoma = test system: SK-MEL-5 melanoma
SK-OV-3 ovarian = test system: SK-OV-3 ovarian
SN12C renal = test system: SN12C renal
SNB-19 CNS = test system: SNB-19 CNS
SNB-75 CNS = test system: SNB-75 CNS
SW-620 colon = test system: SW-620 colon
T-47D breast = test system: T-47D breast
TK-10 renal = test system: TK-10 renal
U251 CNS = test system: U251 CNS
UACC-257 melanoma = test system: UACC-257 melanoma
UACC-62 melanoma = test system: UACC-62 melanoma
UO-31 renal = test system: UO-31 renal
CAKI-1 renal = test system: CAKI-1 renal
CCRF-CEM leukemia = test system: CCRF-CEM leukemia
IGROV1 ovarian = test system: IGROV1 ovarian
KM12 colon = test system: KM12 colon
OVCAR-3 ovarian = test system: OVCAR-3 ovarian
SF-295 CNS = test system: SF-295 CNS

In the case of `Cn1ccnc1Oc1ccc(Cl)cc1`, the TGI (786-0 renal) is reported as 24.7 µM, the TGI (A498 renal) is reported as 46.4 µM and the TGI (A549 NSCLC) is reported as greater than 100 µM. The TGI (ACHN renal) was 25.4 µM, the TGI (BT-549 breast) was 65.7 µM and the TGI (COLO 205 colon) was 25.7 µM. For the same compound, the TGI (DU-145 prostate) was 30.7 µM, the TGI (EKVX NSCLC) was 49.1 µM and the TGI (HCC-2998 colon) was 14.9 µM. For the same compound, the TGI (HCT-116 colon) was 24.3 µM, the TGI (HCT-15 colon) was 23.9 µM and the TGI (HL-60(TB) leukemia) was 11.1 µM. For the same compound, the TGI (HOP-62 NSCLC) was 65.6 µM, the TGI (HOP-92 NSCLC) was 24.4 µM and the TGI (HS 578T breast) was 66.1 µM. The TGI (HT29 colon) was 26.6 µM, the TGI (K-562 leukemia) was 42.3 µM and the TGI (LOX IMVI melanoma) was 36.6 µM. It also gave a TGI (M14 melanoma) of 37.2 µM, a TGI (MALME-3M melanoma) of 10.2 µM and a TGI (MCF7 breast) of 38.3 µM. The TGI (MDA-MB-231 breast) was 37.4 µM, the TGI (MDA-MB-435) was 25.1 µM and the TGI (MOLT-4 leukemia) was 7.01 µM. It also gave a TGI (NCI-H226 lung) of 44.3 µM, a TGI (NCI-H23 lung) of 39.5 µM and a TGI (NCI-H460 lung) greater than 100 µM. It also gave a TGI (NCI-H522 lung) of 11.6 µM, a TGI (NCI/ADR-RES ovarian) of 49 µM and a TGI (OVCAR-4 ovarian) of 19.8 µM. The TGI (OVCAR-5 ovarian) was 35.7 µM, the TGI (OVCAR-8 ovarian) was 22.4 µM and the TGI (PC-3 prostate) was 34.2 µM. For the same compound, the TGI (RPMI-8226 leukemia) was 2.85 µM, the TGI (RXF 393 renal) was 37.1 µM and the TGI (SF-268 CNS) was 99.4 µM. For the same compound, the TGI (SF-539 CNS) was 31.7 µM, the TGI (SK-MEL-2 melanoma) was 39.5 µM and the TGI (SK-MEL-28 melanoma) was 27.4 µM. For the same compound, the TGI (SK-MEL-5 melanoma) was 27.1 µM, the TGI (SK-OV-3 ovarian) was greater than 100 µM and the TGI (SN12C renal) was 26.4 µM. The TGI (SNB-19 CNS) was greater than 100 µM, the TGI (SNB-75 CNS) was 51.8 µM and the TGI (SW-620 colon) was 26.4 µM. It also gave a TGI (T-47D breast) of 14.3 µM, a TGI (TK-10 renal) of 32.6 µM and a TGI (U251 CNS) of 46.7 µM. The TGI (UACC-257 melanoma) was 21.5 µM, the TGI (UACC-62 melanoma) was 23.5 µM and the TGI (UO-31 renal) was 23.9 µM.

Compound `CCOC(=O)c1cc2c(cc1Cl)SC(=Nc1ccccc1)N(S(=O)(=O)c1ccc(Br)s1)S2(=O)=O` has a GI50 (786-0 renal) of 17.5 µM, a TGI (786-0 renal) of 32.6 µM and a GI50 (A498 renal) of 16.2 µM. For the same compound, the TGI (A498 renal) was 34 µM, the GI50 (A549 NSCLC) was 21.4 µM and the TGI (A549 NSCLC) was 53.8 µM. It also gave a GI50 (ACHN renal) of 14.4 µM, a TGI (ACHN renal) of 27.5 µM and a GI50 (BT-549 breast) of 17.3 µM. For the same compound, the TGI (BT-549 breast) was 34.8 µM, the GI50 (CAKI-1 renal) was 17.5 µM and the TGI (CAKI-1 renal) was 32.8 µM. For the same compound, the GI50 (CCRF-CEM leukemia) was 4.51 µM, the TGI (CCRF-CEM leukemia) was 18.8 µM and the GI50 (COLO 205 colon) was 25.2 µM. It also gave a TGI (COLO 205 colon) greater than 100 µM, a GI50 (DU-145 prostate) of 19 µM and a TGI (DU-145 prostate) of 37 µM. It also gave a GI50 (EKVX NSCLC) of 15.5 µM, a TGI (EKVX NSCLC) of 32.3 µM and a GI50 (HCC-2998 colon) of 16.7 µM. The TGI (HCC-2998 colon) was 31.6 µM, the GI50 (HCT-116 colon) was 14.8 µM and the TGI (HCT-116 colon) was 30.8 µM. It also gave a GI50 (HCT-15 colon) of 13.5 µM, a TGI (HCT-15 colon) of 27.1 µM and a GI50 (HOP-62 NSCLC) of 23.3 µM. It also gave a TGI (HOP-62 NSCLC) of 44.2 µM, a GI50 (HOP-92 NSCLC) of 10.9 µM and a TGI (HOP-92 NSCLC) of 33.6 µM. The GI50 (HS 578T breast) was 18.7 µM, the TGI (HS 578T breast) was 49.4 µM and the GI50 (HT29 colon) was 31.2 µM. The TGI (HT29 colon) was greater than 100 µM, the GI50 (IGROV1 ovarian) was 17.7 µM and the TGI (IGROV1 ovarian) was 53.4 µM. For the same compound, the GI50 (K-562 leukemia) was 4.73 µM, the TGI (K-562 leukemia) was 21.1 µM and the GI50 (KM12 colon) was 17.6 µM. For the same compound, the TGI (KM12 colon) was 33.3 µM, the GI50 (LOX IMVI melanoma) was 11.2 µM and the TGI (LOX IMVI melanoma) was 24.1 µM. For the same compound, the GI50 (M14 melanoma) was 15.2 µM, the TGI (M14 melanoma) was 35 µM and the GI50 (MCF7 breast) was 16.5 µM. It also gave a TGI (MCF7 breast) of 45.8 µM, a GI50 (MDA-MB-231 breast) of 14.1 µM and a TGI (MDA-MB-231 breast) of 30.6 µM. For the same compound, the GI50 (MDA-MB-435) was 13.4 µM, the TGI (MDA-MB-435) was 28.3 µM and the GI50 (MOLT-4 leukemia) was 4.37 µM. The TGI (MOLT-4 leukemia) was 17.9 µM, the GI50 (NCI-H226 lung) was 16.2 µM and the TGI (NCI-H226 lung) was 35 µM. The GI50 (NCI-H23 lung) was 18.3 µM, the TGI (NCI-H23 lung) was 42.2 µM and the GI50 (NCI-H460 lung) was 19.4 µM. It also gave a TGI (NCI-H460 lung) of 51.1 µM, a GI50 (NCI-H522 lung) of 26.4 µM and a TGI (NCI-H522 lung) of 74.9 µM. It also gave a GI50 (NCI/ADR-RES ovarian) of 17.5 µM, a TGI (NCI/ADR-RES ovarian) of 37.6 µM and a GI50 (OVCAR-3 ovarian) of 12.2 µM. It also gave a TGI (OVCAR-3 ovarian) of 24.7 µM, a GI50 (OVCAR-4 ovarian) of 23.4 µM and a TGI (OVCAR-4 ovarian) of 59.8 µM. For the same compound, the GI50 (OVCAR-5 ovarian) was 22 µM, the TGI (OVCAR-5 ovarian) was 50.8 µM and the GI50 (OVCAR-8 ovarian) was 17 µM. It also gave a TGI (OVCAR-8 ovarian) of 39.3 µM, a GI50 (PC-3 prostate) of 14.5 µM and a TGI (PC-3 prostate) of 32.1 µM. It also gave a GI50 (RPMI-8226 leukemia) of 12.1 µM, a TGI (RPMI-8226 leukemia) of 41.9 µM and a GI50 (RXF 393 renal) of 2.1 µM. The TGI (RXF 393 renal) was 11.5 µM, the GI50 (SF-268 CNS) was 19.2 µM and the TGI (SF-268 CNS) was 46.5 µM. The GI50 (SF-295 CNS) was 21.5 µM, the TGI (SF-295 CNS) was 46.4 µM and the GI50 (SF-539 CNS) was 14.3 µM. The TGI (SF-539 CNS) was 29.3 µM, the GI50 (SK-MEL-2 melanoma) was 15.8 µM and the TGI (SK-MEL-2 melanoma) was 43.3 µM. The GI50 (SK-MEL-28 melanoma) was 24.1 µM, the TGI (SK-MEL-28 melanoma) was 64.5 µM and the GI50 (SK-MEL-5 melanoma) was 12.1 µM. The TGI (SK-MEL-5 melanoma) was 25.2 µM, the GI50 (SK-OV-3 ovarian) was 34.5 µM and the TGI (SK-OV-3 ovarian) was greater than 100 µM. It also gave a GI50 (SN12C renal) of 17.3 µM, a TGI (SN12C renal) of 33.9 µM and a GI50 (SNB-19 CNS) of 36.6 µM. For the same compound, the TGI (SNB-19 CNS) was greater than 100 µM, the GI50 (SNB-75 CNS) was 23.4 µM and the TGI (SNB-75 CNS) was 60.8 µM. It also gave a GI50 (SW-620 colon) of 16.6 µM, a TGI (SW-620 colon) of 34.3 µM and a GI50 (T-47D breast) of 15.6 µM. It also gave a TGI (T-47D breast) of 53.9 µM, a GI50 (TK-10 renal) of 15.9 µM and a TGI (TK-10 renal) of 30.4 µM. It also gave a GI50 (U251 CNS) of 11.7 µM, a TGI (U251 CNS) of 25.8 µM and a GI50 (UACC-257 melanoma) of 13.5 µM. For the same compound, the TGI (UACC-257 melanoma) was 30.4 µM, the GI50 (UACC-62 melanoma) was 14.4 µM and the TGI (UACC-62 melanoma) was 28.1 µM. It also gave a GI50 (UO-31 renal) of 22.1 µM and a TGI (UO-31 renal) of 53.9 µM.
